Assay [1] has as its system Ovarian adenocarcinoma SKOV3 cells. Nature of the assay: SKOV3 cell death assay (MTT, 72 hours). The format is cell-based. Conditions: Homo sapiens, SK-OV-3, compound alone. The procedure: Ovarian adenocarcinoma SKOV3 cells were cultured as monolayers in McCoy's 5a medium (HyClone) supplemented with 2.2 g/L sodium bicarbonate (Gibco), 10% FBS (HyClone) and 1% penicillin/streptomycin (HyClone). Cells were seeded in 96 well plates at 5000 cells/well. After 24 hours in culture, cells were treated with compound. Cells were incubated in the presence of compound for 72 hours. Metabolic viability of remaining cells was assessed by MTT (thiazolyl blue tetrazolium bromide, Sigma) assay.
(§1) EC50 values (50% cell survival in the presence of compound as compared to untreated controls) were calculated from survival curves using BioAssay software (CambridgeSoft, HCT116 and SKOV3 SAR) and GraphPad Prism (Graph Pad Software Inc., Synoviocyte SAR).

Assay [2] concerns Colorectal carcinoma HCT116 cells. Nature of the assay: HCT116 + ETR1 cell death assay (MTT, 72 hours). Type of assay: cell-based. Conditions: with HGS ETR1 40 ng/ml. The procedure:
Colorectal carcinoma HCT116 cells were cultured as monolayers in 96 well plates at a density of 2000 cells per well in McCoy's 5a medium (HyClone) supplemented with 2.2 g/L sodium bicarbonate (Gibco), 10% FBS (HyClone) and 1% penecillin/streptomycin (HyClone). 24 hours later, triplicate wells were treated with HGS ETR1 (40 ng/ml) in combination with compound. Cells were incubated in the presence of compound and HGS agonistic Trail receptor antibody, ETR1 (Mapatumamab, 40 ng/ml) for 72 hours. Metabolic viability of remaining cells was assessed by MTT (thiazolyl blue tetrazolium bromide, Sigma) assay.
as §1

Bounds are passed on as bounds.

Turning to `CN[C@@H](C)C(=O)N[C@H](C(=O)N1CCC[C@H]1CN(CCc1ccccc1)C(=O)CNC(=O)c1ccc(C(=O)NCC(=O)N(CCc2ccccc2)C[C@@H]2CCCN2C(=O)[C@@H](NC(=O)[C@H](C)NC)C2CCCCC2)cc1)C1CCCCC1` [Compound 1], the concentration for a half-maximal effect (EC50) in assay [1] and in assay [2] was below 100 nM each time. For the compound `CN[C@@H](C)C(=O)N[C@H](C(=O)N1CCC[C@H]1CN(CCc1ccccc1)C(=O)CNC(=O)c1ccc2cc(C(=O)NCC(=O)N(CCc3ccccc3)C[C@@H]3CCCN3C(=O)[C@@H](NC(=O)[C@H](C)NC)C3CCCCC3)ccc2c1)C1CCCCC1` [Compound 3], the EC50 in assay [1] and in assay [2] was below 100 nM in each case. As to `CN[C@@H](C)C(=O)N[C@H](C(=O)N1CCC[C@H]1CN(CCc1ccccc1)C(=O)CNC(=O)C1CCC(C(=O)NCC(=O)N(CCc2ccccc2)C[C@@H]2CCCN2C(=O)[C@@H](NC(=O)[C@H](C)NC)C2CCCCC2)CC1)C1CCCCC1` (some centres unmarked) [Compound 4], the half-maximal effective concentration (EC50) in assay [1] and in assay [2] was below 100 nM each time. As to `CN[C@@H](C)C(=O)N[C@H](C(=O)N1CCC[C@H]1CN(CCc1ccc(F)cc1)C(=O)c1ccc(C(=O)N(CCc2ccc(F)cc2)C[C@@H]2CCCN2C(=O)[C@@H](NC(=O)[C@H](C)NC)C2CCCCC2)cc1)C1CCCCC1` [Compound 5], the EC50 in assay [1] and in assay [2] was below 100 nM each time. Regarding `CN[C@@H](C)C(=O)N[C@H](C(=O)N1CCC[C@H]1CN(CCc1ccc(F)cc1)C(=O)CNC(=O)c1ccc(C(=O)NCC(=O)N(CCc2ccc(F)cc2)C[C@@H]2CCCN2C(=O)[C@@H](NC(=O)[C@H](C)NC)C2CCCCC2)cc1)C1CCCCC1` [Compound 7], the EC50 in assay [1] and in assay [2] was below 100 nM throughout.

Regarding `CN[C@@H](C)C(=O)N[C@H](C(=O)N1CCC[C@H]1CN(CCc1ccc(F)cc1)C(=O)CNC(=O)c1ccc2cc(C(=O)NCC(=O)N(CCc3ccc(F)cc3)C[C@@H]3CCCN3C(=O)[C@@H](NC(=O)[C@H](C)NC)C3CCCCC3)ccc2c1)C1CCCCC1` [Compound 9], the half-maximal effective concentration (EC50) in assay [1] and in assay [2] was below 100 nM throughout.

For `CN[C@@H](C)C(=O)N[C@H](C(=O)N1CCC[C@H]1CN(CCc1ccc(F)cc1)C(=O)CNC(=O)C1CCC(C(=O)NCC(=O)N(CCc2ccc(F)cc2)C[C@@H]2CCCN2C(=O)[C@@H](NC(=O)[C@H](C)NC)C2CCCCC2)CC1)C1CCCCC1` (some centres unmarked) [Compound 10], the 50% effective concentration (EC50) (commonly the concentration needed to bring the measured effect to its halfway point) in assay [2] is below 100 nM. Same read-out and setting: the value for `CN[C@@H](C)C(=O)N[C@H](C(=O)N1CCC[C@H]1CN(CCc1ccccc1)C(=O)c1ccc2cc(C(=O)N(CCc3ccccc3)C[C@@H]3CCCN3C(=O)[C@@H](NC(=O)[C@H](C)NC)C3CCCCC3)ccc2c1)C1CCCCC1` [Compound 12] was below 100 nM. On the same count and under the same terms, for `CN[C@@H](C)C(=O)N[C@H](C(=O)N1CCC[C@H]1CN(CCc1ccc(OC)cc1)C(=O)c1ccc2cc(C(=O)N(CCc3ccc(OC)cc3)C[C@@H]3CCCN3C(=O)[C@@H](NC(=O)[C@H](C)NC)C3CCCCC3)ccc2c1)C1CCCCC1` [Compound 13] the value was above 100 nM; for `CN[C@@H](C)C(=O)N[C@H](C(=O)N1CCC[C@H]1CN(CCc1ccc(OC)cc1)C(=O)CNC(=O)c1ccc(-c2ccc(C(=O)NCC(=O)N(CCc3ccc(OC)cc3)C[C@@H]3CCCN3C(=O)[C@@H](NC(=O)[C@H](C)NC)C3CCCCC3)cc2)cc1)C1CCCCC1` [Compound 14], above 100 nM. Take `CN[C@@H](C)C(=O)N[C@H](C(=O)N1CCC[C@H]1CN(C(=O)CNC(=O)c1ccc(-c2ccc(C(=O)NCC(=O)N(C[C@@H]3CCCN3C(=O)[C@@H](NC(=O)[C@H](C)NC)C3CCCCC3)C3Cc4ccccc4C3)cc2)cc1)C1Cc2ccccc2C1)C1CCCCC1` [Compound 15]: in assay [2], the EC50 was below 100 nM. As to `CN[C@@H](C)C(=O)N[C@H](C(=O)N1CCC[C@H]1CN(CCc1ccccc1)C(=O)c1ccc2cc(C(=O)N(CCc3ccccc3)C[C@@H]3CCCN3C(=O)[C@@H](NC(=O)[C@H](C)NC)C3CCCC3)ccc2c1)C1CCCC1` [Compound 16], the half-maximal effective concentration (EC50) in assay [1] and in assay [2] was below 100 nM in each case. Take `CN[C@@H](C)C(=O)N[C@H](C(=O)N1CCC[C@H]1CN(CCc1ccccc1)C(=O)c1ccc2cc(C(=O)N(CCc3ccccc3)C[C@@H]3CCCN3C(=O)[C@@H](NC(=O)[C@H](C)NC)c3ccccc3)ccc2c1)c1ccccc1` [Compound 24]: the EC50 in assay [2] is below 100 nM. For `CN[C@@H](C)C(=O)N[C@H](C(=O)N1CCC[C@H]1CN(CCc1ccccc1)C(=O)c1ccc(-c2ccc(C(=O)N(CCc3ccccc3)C[C@@H]3CCCN3C(=O)[C@@H](NC(=O)[C@H](C)NC)c3ccccc3)cc2)cc1)c1ccccc1` [Compound 25], the EC50 in assay [2] was below 100 nM. Take `CN[C@@H](C)C(=O)N[C@H](C(=O)N1CCC[C@H]1CN(CCc1ccccc1)C(=O)c1ccc2cc(C(=O)N(CCc3ccccc3)C[C@@H]3CCCN3C(=O)[C@@H](NC(=O)[C@H](C)NC)C3CCOCC3)ccc2c1)C1CCOCC1` [Compound 26]: the EC50 in assay [2] is below 100 nM.

`CN[C@@H](C)C(=O)N[C@H](C(=O)N1CCC[C@H]1CN(CCc1ccccc1)C(=O)c1ccc(-c2ccc(C(=O)N(CCc3ccccc3)C[C@@H]3CCCN3C(=O)[C@@H](NC(=O)[C@H](C)NC)C3CCOCC3)cc2)cc1)C1CCOCC1` [Compound 27]: in assay [2], the EC50 is below 100 nM. `CN[C@@H](C)C(=O)N[C@H](C(=O)N1CCC[C@H]1CN(CCc1ccc(F)cc1)S(=O)(=O)c1ccc2cc(S(=O)(=O)N(CCc3ccc(F)cc3)C[C@@H]3CCCN3C(=O)[C@@H](NC(=O)[C@H](C)NC)C3CCCCC3)ccc2c1)C1CCCCC1` [Compound 28]: in assay [2], the concentration giving a half-maximal response (EC50) is below 100 nM. As for `CN[C@@H](C)C(=O)N[C@H](C(=O)N1CCC[C@H]1CN(CCc1ccccc1)C(=O)CNC(=O)c1ccc(-c2ccc(C(=O)NCC(=O)N(CCc3ccccc3)C[C@@H]3CCCN3C(=O)[C@@H](NC(=O)[C@H](C)NC)C3CCCCC3)cn2)nc1)C1CCCCC1` [Compound 29], the half-maximal effective concentration (EC50) in assay [2] is below 100 nM. On to `CN[C@@H](C)C(=O)N[C@H](C(=O)N1CCC[C@H]1CN(CCc1ccccc1)C(=O)c1ccc(-c2ccc(C(=O)N(CCc3ccccc3)C[C@@H]3CCCN3C(=O)[C@@H](NC(=O)[C@H](C)NC)C3CCCCC3)cn2)nc1)C1CCCCC1` [Compound 30], for which the half-maximal effective concentration (EC50) in assay [2] is below 100 nM. Take `CN[C@@H](C)C(=O)N[C@H](C(=O)N1CCC[C@H]1CN(CCc1ccccc1)C(=O)[C@@H](C)NC(=O)c1ccc(-c2ccc(C(=O)N[C@H](C)C(=O)N(CCc3ccccc3)C[C@@H]3CCCN3C(=O)[C@@H](NC(=O)[C@H](C)NC)C3CCCCC3)cc2)cc1)C1CCCCC1` [Compound 31]: the EC50 in assay [2] is below 100 nM. With `CN[C@@H](C)C(=O)N[C@H](C(=O)N1CCC[C@H]1CN(CCc1ccccc1)C(=O)CN(C)C(=O)c1ccc(-c2ccc(C(=O)N(C)CC(=O)N(CCc3ccccc3)C[C@@H]3CCCN3C(=O)[C@@H](NC(=O)[C@H](C)NC)C3CCCCC3)cc2)cc1)C1CCCCC1` [Compound 32], the EC50 in assay [2] is below 100 nM. With `CN[C@@H](C)C(=O)N[C@H](C(=O)N1CCC[C@H]1CN(CCc1ccccc1)C(=O)[C@H](C)NC(=O)c1ccc(-c2ccc(C(=O)N[C@@H](C)C(=O)N(CCc3ccccc3)C[C@@H]3CCCN3C(=O)[C@@H](NC(=O)[C@H](C)NC)C3CCCCC3)cc2)cc1)C1CCCCC1` [Compound 33], the concentration for a half-maximal effect (EC50) in assay [2] was below 100 nM. As for `CN[C@@H](C)C(=O)N[C@H](C(=O)N1CCC[C@H]1CN(CCc1ccccc1)C(=O)c1csc(-c2ccc(-c3nc(C(=O)N(CCc4ccccc4)C[C@@H]4CCCN4C(=O)[C@@H](NC(=O)[C@H](C)NC)C4CCCCC4)cs3)cc2)n1)C1CCCCC1` [Compound 34], the EC50 in assay [2] is below 100 nM. For `CN[C@@H](C)C(=O)N[C@H](C(=O)N1CCC[C@H]1CN(CCc1ccccc1)C(=O)c1csc(-c2ccc(-c3ccc(-c4nc(C(=O)N(CCc5ccccc5)C[C@@H]5CCCN5C(=O)[C@@H](NC(=O)[C@H](C)NC)C5CCCCC5)cs4)cc3)cc2)n1)C1CCCCC1` [Compound 35], the concentration giving a half-maximal response (EC50) in assay [2] is below 100 nM. The same measure, in the same setting: the value for `CN[C@H](C(=O)N[C@H](C(=O)N1CCC[C@H]1CN(CCc1ccccc1)C(=O)c1ccc(-c2ccc(C(=O)N(CCc3ccccc3)C[C@@H]3CCCN3C(=O)[C@@H](NC(=O)[C@@H](NC)C3CC3)C3CCCCC3)cc2)cc1)C1CCCCC1)C1CC1` [Compound 36] was below 100 nM. In the case of `CCN[C@@H](C)C(=O)N[C@H](C(=O)N1CCC[C@H]1CN(CCc1ccccc1)C(=O)c1ccc(-c2ccc(C(=O)N(CCc3ccccc3)C[C@@H]3CCCN3C(=O)[C@@H](NC(=O)[C@H](C)NCC)C3CCCCC3)cc2)cc1)C1CCCCC1` [Compound 37], the EC50 in assay [2] is below 100 nM. As for `CCCN[C@@H](C)C(=O)N[C@H](C(=O)N1CCC[C@H]1CN(CCc1ccccc1)C(=O)c1ccc(-c2ccc(C(=O)N(CCc3ccccc3)C[C@@H]3CCCN3C(=O)[C@@H](NC(=O)[C@H](C)NCCC)C3CCCCC3)cc2)cc1)C1CCCCC1` [Compound 38], the EC50 in assay [2] is below 100 nM.

Consider `CC[C@H](NC)C(=O)N[C@H](C(=O)N1CCC[C@H]1CN(CCc1ccccc1)C(=O)c1ccc(-c2ccc(C(=O)N(CCc3ccccc3)C[C@@H]3CCCN3C(=O)[C@@H](NC(=O)[C@H](CC)NC)C3CCCCC3)cc2)cc1)C1CCCCC1` [Compound 39], for which the EC50 in assay [2] was below 100 nM.
